Measured values from PubChem BioAssay (NCI).
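Growth conditions: 96-well plates. Treatment: test compound, 48 hours, 5 concentrations. Analysis: linear interpolation between bracketing concentrations; unreached endpoints set to highest concentration. TGI is the concentration that stops growth completely.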

How the values were obtained:
Assay in all cases: inhibition of tumour cell growth, NCI panel, 48 h
[1] = test system: 786-0 renal
[2] = test system: A498 renal
[3] = test system: A549 NSCLC
[4] = test system: ACHN renal
[5] = test system: CAKI-1 renal
[6] = test system: CCRF-CEM leukemia
[7] = test system: COLO 205 colon
[8] = test system: DU-145 prostate
[9] = test system: EKVX NSCLC
[10] = test system: HCC-2998 colon
[11] = test system: HCT-116 colon
[12] = test system: HCT-15 colon
[13] = test system: HL-60(TB) leukemia
[14] = test system: HOP-62 NSCLC
[15] = test system: HOP-92 NSCLC
[16] = test system: HS 578T breast
[17] = test system: HT29 colon
[18] = test system: IGROV1 ovarian
[19] = test system: K-562 leukemia
[20] = test system: KM12 colon
[21] = test system: LOX IMVI melanoma
[22] = test system: M14 melanoma
[23] = test system: MALME-3M melanoma
[24] = test system: MCF7 breast
[25] = test system: MDA-MB-231 breast
[26] = test system: MDA-MB-435
[27] = test system: MDA-N
[28] = test system: MOLT-4 leukemia
[29] = test system: NCI-H226 lung
[30] = test system: NCI-H23 lung
[31] = test system: NCI-H460 lung
[32] = test system: NCI-H522 lung
[33] = test system: NCI/ADR-RES ovarian
[34] = test system: OVCAR-3 ovarian
[35] = test system: OVCAR-4 ovarian
[36] = test system: OVCAR-5 ovarian
[37] = test system: OVCAR-8 ovarian
[38] = test system: PC-3 prostate
[39] = test system: RPMI-8226 leukemia
[40] = test system: RXF 393 renal
[41] = test system: SF-268 CNS
[42] = test system: SF-295 CNS
[43] = test system: SF-539 CNS
[44] = test system: SK-MEL-2 melanoma
[45] = test system: SK-MEL-28 melanoma
[46] = test system: SK-MEL-5 melanoma
[47] = test system: SK-OV-3 ovarian
[48] = test system: SN12C renal
[49] = test system: SNB-19 CNS
[50] = test system: SNB-75 CNS
[51] = test system: SW-620 colon
[52] = test system: T-47D breast
[53] = test system: TK-10 renal
[54] = test system: U251 CNS
[55] = test system: UACC-257 melanoma
[56] = test system: UO-31 renal

Measured: TGI

CCc1cc2c(c3c1CCCC3=O)CC1(Cc3ccc(C(=O)OC)cc3C1)C2 (stereo unspecified)
91.4 µM: [6]
91 µM: [39]
30.1 µM: [46]
55.4 µM: [13]
> 100 µM: all other assays above
